What was measured:
[1] = target: T1, Fatty-acid amide hydrolase 1 (Homo sapiens, UniProt O00519); assay: Inhibition of human FAAH
T1 sequence (O00519 whole entry): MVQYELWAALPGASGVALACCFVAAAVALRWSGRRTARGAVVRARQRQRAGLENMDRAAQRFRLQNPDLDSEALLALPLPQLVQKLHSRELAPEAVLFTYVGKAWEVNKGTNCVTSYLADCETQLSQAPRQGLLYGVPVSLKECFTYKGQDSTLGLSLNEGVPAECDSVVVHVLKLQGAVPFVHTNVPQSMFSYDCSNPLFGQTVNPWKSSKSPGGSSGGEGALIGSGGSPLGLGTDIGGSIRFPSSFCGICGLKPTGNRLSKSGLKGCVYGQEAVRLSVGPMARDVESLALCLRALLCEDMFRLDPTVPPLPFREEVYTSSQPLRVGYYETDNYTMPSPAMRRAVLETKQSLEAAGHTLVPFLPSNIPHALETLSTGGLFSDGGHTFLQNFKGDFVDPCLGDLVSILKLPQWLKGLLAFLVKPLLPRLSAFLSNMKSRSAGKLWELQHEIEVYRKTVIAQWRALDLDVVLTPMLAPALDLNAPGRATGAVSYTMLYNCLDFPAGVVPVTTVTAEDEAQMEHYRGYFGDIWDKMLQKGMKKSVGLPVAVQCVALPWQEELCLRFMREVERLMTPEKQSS

[2] = target: T1, Fatty-acid amide hydrolase 1; assay: Inhibition of human FAAH-mediated hydrolysis of [3H]AEA
[3] = target: T2, Fatty-acid amide hydrolase 1 (Rattus norvegicus, UniProt P97612); assay: Inhibition of rat FAAH
T2 sequence (P97612 whole entry): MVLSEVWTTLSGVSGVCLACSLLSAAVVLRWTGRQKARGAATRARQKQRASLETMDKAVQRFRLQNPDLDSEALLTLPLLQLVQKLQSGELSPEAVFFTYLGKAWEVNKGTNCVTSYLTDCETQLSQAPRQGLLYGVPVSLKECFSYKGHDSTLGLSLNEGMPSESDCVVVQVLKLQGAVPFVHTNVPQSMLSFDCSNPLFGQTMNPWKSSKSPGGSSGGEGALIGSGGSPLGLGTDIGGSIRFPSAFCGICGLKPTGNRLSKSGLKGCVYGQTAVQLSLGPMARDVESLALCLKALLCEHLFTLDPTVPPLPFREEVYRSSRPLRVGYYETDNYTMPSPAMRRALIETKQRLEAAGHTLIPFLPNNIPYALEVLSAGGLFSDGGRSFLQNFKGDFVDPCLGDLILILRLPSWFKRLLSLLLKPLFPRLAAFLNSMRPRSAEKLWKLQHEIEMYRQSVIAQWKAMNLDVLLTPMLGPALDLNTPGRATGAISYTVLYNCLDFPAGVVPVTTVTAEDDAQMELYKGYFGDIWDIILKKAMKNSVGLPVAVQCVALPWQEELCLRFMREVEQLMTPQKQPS

[4] = Toxicity in rat; assay type: organism-based; details: in vivo
[5] = target: T3, Fatty-acid amide hydrolase 1 (Rattus norvegicus) (UniProt P97612); assay: Inhibition of rat FAAH at 10 uM
T3 sequence (whole entry): T2 sequence (P97612 whole entry)

Row | Structure (SMILES) | IC50 [1] [nM] | IC50 [2] [nM] | IC50 [3] [nM] | LD50 [4] [mg/kg] | inhibition [5] [%]
1 | COC(=O)Nc1cccc(OC(=O)Nc2cccc(C)c2)c1 | 377 | 152 | 77 | > 8000 | 
2 | CCNC(=O)N1CCN(CCCC(c2ccc(F)cc2)c2ccc(F)cc2)CC1 [AMPEROZIDE] | 1340 | 455 |  |  | 50
